Data set [1] relates to Huh-7. Description: Induction of autophagy in human Huh-7 cells assessed as rescue of ULK1 phosphorylation level at upto 10 nM incubated for 48 hrs in presence of gamabufotalin by immunoblot method. In kind it is functional, cell-based.
The subject of data set [2] is Hep 3B2. As to the kind of experiment: Induction of autophagy in human Hep3B cells assessed as rescue of ULK1 phosphorylation level at upto 10 nM incubated for 48 hrs in presence of gamabufotalin by immunoblot method. In kind it is functional, cell-based. A general note: Immunoblotting shows a protein as a band on a membrane.
The test system of data set [3] is Hep 3B2. Description: Induction of autophagic flux in human Hep3B cells assessed as increase in number of autophagic vesicles at 10 nM by transmission electron microscopic analysis. In kind it is functional, cell-based.
The test system of data set [4] is Huh-7. As to the kind of experiment: Induction of autophagic flux in human Huh-7 cells assessed as rescue of LC3-II accumulation at 10 uM incubated for 48 hrs in presence of gamabufotalin by Western blot analysis. The class given is functional, cell-based.
For data set [5], the system named is Hep 3B2. As to the kind of experiment: Induction of autophagic flux in human Hep3B cells harbouring mCherry-egfp-LC3 assessed as increase in yellow puncta ratio at 10 nM by fluorescence imaging based assay. The class given is functional, cell-based.
In data set [6] the test system is Huh-7. As to the kind of experiment: Induction of apoptosis in human Huh-7 cells assessed as increase in cleaved caspase-3 level at 10 nM incubated for 48 hrs in presence of gamabufotalin by immunoblot analysis. In kind it is functional, cell-based.
Data set [7] has as its system Huh-7. Description: Induction of apoptosis in human Huh-7 cells assessed as decrease in bcl-2 level at 10 nM incubated for 48 hrs in presence of gamabufotalin by immunoblot analysis. The class given is functional, cell-based.
The subject of data set [8] is Hep 3B2. Description: Induction of apoptosis in human Hep3B cells assessed as viable cells at 10 nM incubated for 48 hrs in presence of gamabufotalin by Annexin V-FITC/PI staining based flow cytometry method (reference value: 94.0%). The class given is functional. To be noted: read-out: Activity. A general note: Flow cytometry measures light scatter and fluorescence of single cells or particles in a stream.

Data set [9] has as its system Hep 3B2. Description: Antitumor activity against human Hep3B cells xenografted in nude mouse model assessed as upregulation of LC3I expression at 5 mg/kg,ip administered every second day for 3 weeks by Western blot analysis. The class given is functional, organism-based. For orientation: A xenograft is tissue or cells of one species grown in another, often human tumour cells in immunodeficient mice.

Data set [10] relates to Huh-7. Description: Inhibition of colony formation in human Huh-7 cells at upto 25 uM incubated for 48 hrs by crystal violet staining based analysis. The class given is functional, cell-based.
The test system of data set [11] is Huh-7. As to the kind of experiment: Induction of apoptosis in human Huh-7 cells assessed as upregulation of bax level […] incubated for 48 hrs in presence of 4,6-dimorpholino-N-(4-nitrophenyl)-1,3,5-triazin-2-amine by immunoblot analysis. In kind it is functional, cell-based.
Data set [12] concerns Huh-7. As to the kind of experiment: Induction of autophagic flux in human Huh-7 cells assessed as decrease in p62 expression at upto 25 nM incubated for 48 hrs by Western blot analysis. The class given is functional, cell-based.
Data set [13] deals with Huh-7. Description: Induction of apoptosis in human Huh-7 cells assessed as […] in Bax level at upto 25 nM incubated for 48 hrs by Western blot analysis. The class given is functional, cell-based.
Data set [14] deals with Hep 3B2. Description: Induction of autophagy in human Hep3B cells assessed as reduction in autophagic vesicles at 25 nM incubated for 48 hrs in presence of 4,6-dimorpholino-N-(4-nitrophenyl)-1,3,5-triazin-2-amine by transmission electron microscopy based analysis. The class given is functional, cell-based.
The subject of data set [15] is Hep 3B2. Description: Induction of apoptosis in human Hep3B cells assessed as late apoptotic cells at 25 nM incubated for 48 hrs by Annexin V-FITC/PI staining based flow cytometry method (reference value: 2.6%). The class given is functional.
Data set [16] concerns Hep 3B2. Description: Induction of autophagic flux in human Hep3B cells assessed as decrease in p62 expression at upto 25 nM incubated for 48 hrs by Western blot analysis. The class given is functional, cell-based.
Data set [17] relates to Hep 3B2. Description: Induction of apoptosis in human Hep3B cells assessed as necrotic cells at 25 nM measured after 48 hrs in presence of Z-VAD-FMK by annexin V-FITC/Propidium iodide staining based flow cytometric analysis (reference value: 0.3%). In kind it is functional.
The subject of data set [18] is Huh-7. As to the kind of experiment: Antiproliferative activity against human Huh-7 cells assessed as cell viability incubated for 24 hrs by CCK-8. In kind it is functional, cell-based. To be noted: Huh-7, 24 h.
In data set [19] the test system is Huh-7. Description: Induction of autophagy in human Huh-7 cells assessed as downregulation of LC3II/LC3I ratio at 25 uM incubated for 48 hrs in presence of 4,6-dimorpholino-N-(4-nitrophenyl)-1,3,5-triazin-2-amine by immunoblot analysis. The class given is functional, cell-based.
For data set [20], the system named is Hep 3B2. Description: Induction of apoptosis in human Hep3B cells assessed as early apoptotic cells at 25 nM measured after 48 hrs in presence of Z-VAD-FMK by annexin V-FITC/Propidium iodide staining based flow cytometric analysis (reference value: 1.6%). The class given is functional.
Data set [21] deals with Hep 3B2. Description: Induction of autophagy in human Hep3B cells assessed as reduction in ULK1 phosphorylation level incubated for 48 hrs by immunoblot method. The class given is functional, cell-based. To be noted: dose 0-25 nM.
Data set [22] concerns Hep 3B2. As to the kind of experiment: Antitumor activity against human Hep3B cells xenografted in nude mouse model assessed as upregulation of bax expression at 5 mg/kg,ip administered every second day for 3 weeks by Western blot analysis. In kind it is functional, organism-based.
In data set [23] the test system is Huh-7. Description: Induction of autophagic flux in human Huh-7 cells assessed as increase in LC3-I expression at upto 25 nM incubated for 48 hrs by Western blot analysis. The class given is functional, cell-based.
The nature of data set [24]: Toxicity in mouse assessed as effect on lungs at 5 mg/kg,ip administered every second day for 3 weeks by H and E staining based microscopic method. The class given is organism-based. The settings on record: in vivo, 504 h.
Data set [25] has as its system Huh-7. Description: Induction of apoptosis in human Huh-7 cells assessed as necrotic cells at 25 nM incubated for 48 hrs by Annexin V-FITC/PI staining based flow cytometry method (reference value: 0.7%). The class given is functional.
The test system of data set [26] is Huh-7. As to the kind of experiment: Induction of apoptosis in human Huh-7 cells assessed as increase in cleaved PARP level at 25 nM incubated for 48 hrs in presence of chloroquine by immunoblot analysis. In kind it is functional, cell-based.
Data set [27] concerns Hep 3B2. As to the kind of experiment: Induction of apoptosis in human Hep3B cells assessed as upregulation of cleaved PARP level […] incubated for 48 hrs in presence of 4,6-dimorpholino-N-(4-nitrophenyl)-1,3,5-triazin-2-amine by immunoblot analysis. The class given is functional, cell-based.
Data set [28] deals with Hep 3B2. As to the kind of experiment: Antitumor activity against human Hep3B cells xenografted in nude mouse model assessed as upregulation of LC3 II expression at 5 mg/kg,ip administered every second day for 3 weeks by Western blot analysis. In kind it is functional, organism-based.
Data set [29] is described as follows: Toxicity in mouse assessed as effect on liver at 5 mg/kg,ip administered every second day for 3 weeks by H and E staining based microscopic method. The class given is organism-based. To be noted: in vivo, 504 h.
Data set [30] deals with Huh-7. Description: Induction of apoptosis in human Huh-7 cells assessed as necrotic cells at 20 nM incubated for 48 hrs by Annexin V-FITC/PI staining based flow cytometry method (reference value: 95.4%). The class given is functional.
The test system of data set [31] is Hep 3B2. As to the kind of experiment: Antitumor activity against human Hep3B cells xenografted in nude mouse model assessed as upregulation of caspase-3 expression at 5 mg/kg,ip administered every second day for 3 weeks by Western blot analysis. In kind it is functional, organism-based.
For data set [32], the system named is Huh-7. As to the kind of experiment: Induction of apoptosis in human Huh-7 cells assessed as early apoptotic cells at 25 nM incubated for 48 hrs by Annexin V-FITC/PI staining based flow cytometry method (reference value: 1.7%). In kind it is functional.
Data set [33] concerns Hep 3B2. Description: Induction of autophagy in human Hep3B cells harbouring mCherry-egfp-LC3 assessed as reduction in red puncta ratio at 25 nM incubated for 15 mins in presence of 4,6-dimorpholino-N-(4-nitrophenyl)-1,3,5-triazin-2-amine by laser scanning confocal microscopic analysis. The class given is functional, cell-based.
Data set [34] has as its system Huh-7. Description: Induction of apoptosis in human Huh-7 cells assessed as early apoptotic cells at 25 nM incubated for 48 hrs by Annexin V-FITC/PI staining based flow cytometry method (reference value: 2.8%). The class given is functional.

Active and inactive are the calls of the source. The calls are words filed in the database; no cut-off is given here.

Take `CCN(CC)CCCC(C)Nc1ccnc2cc(Cl)ccc12` (centres undefined) [CHLOROQUINE]: the outcome in the data set on Huh-7 [1], with Hep 3B2 [2], in the data set with Hep 3B2 [3], in the data set on Huh-7 [4], in the data set with Hep 3B2 [5] and with Huh-7 [6] was Active. The outcome in the data set with Huh-7 [7] was Active. Moreover, the viability at 0.01 µM in the data set with Hep 3B2 [8] is 63.9%.
As usually defined, the IC50 is the concentration needed to halve the response being measured. On to `C[C@]12CC[C@H](O)C[C@H]1CC[C@@H]1[C@@H]2[C@H](O)C[C@]2(C)[C@@H](c3ccc(=O)oc3)CC[C@]12O` [GAMABUFOTALIN], for which the result in the data set with Hep 3B2 [9], with Huh-7 [11], with Huh-7 [12], with Huh-7 [13], in the data set with Hep 3B2 [14] and in the data set with Hep 3B2 [16] was Active. Further, the outcome with Huh-7 [19], with Hep 3B2 [22], in the data set with Huh-7 [23], with Huh-7 [26], with Hep 3B2 [27] and in the data set with Hep 3B2 [28] was Active. Also, the outcome with Hep 3B2 [31] and in the data set with Hep 3B2 [33] was Active. The inhibition entry in the data set on Huh-7 [10] is “Active”. Moreover, the Activity was 5.2% in the data set with Hep 3B2 [15]; 0.3% in the data set on Hep 3B2 [17]; 4.4% in the data set with Hep 3B2 [20]; “Dose-Dependent Effect” with Hep 3B2 [21]; “Non-Toxic” in data set [24]; 6.3% in the data set on Huh-7 [25]. In addition, the Activity entry is reported as “Non-Toxic” in [29], 60.8% with Huh-7 [30], 5.6% in the data set with Huh-7 [32] and 8.7% in the data set with Huh-7 [34]. Further, the 50% inhibitory concentration (IC50) in the data set on Huh-7 [18] amounted to 23 nM.

The record behind these values is ChEMBL document CHEMBL5257089, “Gamabufotalin Induces Apoptosis and Cytoprotective Autophagy through the mTOR Signaling Pathway in Hepatocellular Carcinoma” (J Nat Prod, 2023).
